Measured values published in patent US11819511B2, “Composition of N-palmitoyl-ethanolamide and Rutin in co-micronized form” (EPITECH GROUP S.P.A, priority 2019, dated 2023).

What was measured:
[1] = tested on: thoracic aorta rings exposed to peroxynitrite; test: Ex vivo vascular reactivity: endothelium-dependent release of thoracic aorta rings from acetylcholine, after complete ligation of the left carotid artery and 14 days of treatment; type: in vivo, C57Bl/6 strain mice; details: aorta rings collected day 14, exposed to peroxynitrite 1 mM, per os once a day for 14 days
Protocol: (§1) (as described by Q.Xu “Mouse models of arteriosclerosis: from arterial injuries to vascular grafts” Am J Pathol. (2014); 165(1):1-10). […] Cuzzocrea et al “Superoxide: a key player in hypertension” FASEB J. […] In particular, the ex vivo measurement of vascular reactivity is carried out with the following procedures: Adult mice of the C57Bl/6 strain weighing 25-30 g are used (Envigo-Italy). The groups of animals on which the evaluations were carried out (10 animals per group) were the following: • Group 1—Animals treated per os with 10 mg/kg of co-micronized palmitoyl-ethanolamide: […] Rutin in a 1:1 ratio, suspended in 1% carboxymethylcellulose solution and with the addition of 0.5 mg/kg of pure hydroxytyrosol in the final solution. At the end of the treatments, the thoracic aortas of the animals are taken and adequately cleaned of the adherent peri-adventitious fat and 3-4 mm rings are cut out. The rings are placed in Krebs solution at pH 7.4 (Krebs solution composition: NaCl 118 mM; KCl 4.7 mM; KH2PO4 1.2 mM; CaCl2 2.5 mM; MgSO4 1.2 mM; NaHCO3 25 mM; glucose 11.7 mM). […] A voltage of 1 g is applied, and the Krebs solution is exchanged every 15 minutes. The aorta rings are exposed to a concentration of peroxynitrile 1 mM.

[2] = tested on: thoracic aorta rings exposed to peroxynitrite; test: Ex vivo vascular reactivity: contraction of thoracic aorta rings from norepinephrine, after complete ligation of the left carotid artery and 14 days of treatment; type: in vivo, C57Bl/6 strain mice; details: aorta rings collected day 14, exposed to peroxynitrite 1 mM, per os once a day for 14 days
Protocol: as §1

[3] = Trolox equivalent; cited from earlier work

## CCCCCCCCCCCCCCCC(=O)NCCO [Group 2, palmitoyl-ethanolamide]
[1]; Acetylcholine 0.1 μM
  Vascular Tone-% of Pre-Contraction from Acetylcholine: 99%
[1]; Acetylcholine 1.0 μM
  Vascular Tone-% of Pre-Contraction from Acetylcholine: 94%
[1]; Acetylcholine 10.0 μM
  Vascular Tone-% of Pre-Contraction from Acetylcholine: 85%
[2]; Norepinephrine 100 nM
  Contraction (g) from Norepinephrine: 0.20 g
[2]; Norepinephrine 1,000 nM
  Contraction (g) from Norepinephrine: 0.40 g
[2]; Norepinephrine 10,000 nM
  Contraction (g) from Norepinephrine: 0.70 g

## C[C@@H]1O[C@@H](OC[C@H]2O[C@@H](Oc3c(-c4ccc(O)c(O)c4)oc4cc(O)cc(O)c4c3=O)[C@H](O)[C@@H](O)[C@@H]2O)[C@H](O)[C@H](O)[C@H]1O [Group 3, Rutin]
[1]; Acetylcholine 0.1 μM
  Vascular Tone-% of Pre-Contraction from Acetylcholine: 100%
[1]; Acetylcholine 1.0 μM
  Vascular Tone-% of Pre-Contraction from Acetylcholine: 96%
[1]; Acetylcholine 10.0 μM
  Vascular Tone-% of Pre-Contraction from Acetylcholine: 81%
[2]; Norepinephrine 100 nM
  Contraction (g) from Norepinephrine: 0.20 g
[2]; Norepinephrine 1,000 nM
  Contraction (g) from Norepinephrine: 0.40 g
[2]; Norepinephrine 10,000 nM
  Contraction (g) from Norepinephrine: 0.70 g

## OCCc1ccc(O)c(O)c1 [hydroxytyrosol, 1-(2-hydroxy)ethyl-3,4-dihydroxybenzene]
[3]
  ORAC (Oxygen Radical Absorbance Capacity) index: 40,000 μmolTE/g
